Values joined by “and” are separate entries in the source; they are usually repeats but may differ in a detail not shown here. Equal values may be shown once. Inconclusive results and toxic doses are left out. No stated cut-off is given here; in the data, active means T/C of 150% or more; inactive means T/C below 125%.
Tested on: L1210 leukemia ip in BDF1 mice, survival T/C
Assay: NCI In Vivo Anticancer Drug Screen. Data for tumor model L1210 Leukemia (intraperitoneal) in B6D2F1 (BDF1) mice
Details: endpoint: mean survival time, higher = longer survival
Outline: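 Read-out is survival time, reported as the treated-group measurement over the vehicle-control measurement.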

[1] = dose: 100.0 mg/kg/injection, schedule: Q04DX002 (ip), vehicle: Klucel (hydroxypropylcellulose) (HPC)
[2] = dose: 100.0 mg/kg/injection, schedule: Q04DX002 (ip), vehicle: saline with Tween-80
[3] = dose: 200.0 mg/kg/injection, schedule: Q04DX002 (ip), vehicle: saline with Tween-80
[4] = dose: 400.0 mg/kg/injection, schedule: Q04DX002 (ip), vehicle: saline with Tween-80
[5] = dose: 12.5 mg/kg/injection, schedule: Q01DX009 (ip), vehicle: saline
[6] = dose: 12.5 mg/kg/injection, schedule: Q04DX003 (ip), vehicle: Klucel (hydroxypropylcellulose) (HPC)
[7] = dose: 25.0 mg/kg/injection, schedule: Q04DX003 (ip), vehicle: Klucel (hydroxypropylcellulose) (HPC)
[8] = dose: 50.0 mg/kg/injection, schedule: Q01DX001 (ip), vehicle: other
[9] = dose: 100.0 mg/kg/injection, schedule: Q01DX009 (ip), vehicle: saline with Tween-80
[10] = dose: 200.0 mg/kg/injection, schedule: Q01DX009 (ip), vehicle: saline with Tween-80
[11] = dose: 400.0 mg/kg/injection, schedule: Q01DX009 (ip), vehicle: saline with Tween-80
[12] = dose: 200.0 mg/kg/injection, schedule: Q04DX002 (ip), vehicle: Klucel (hydroxypropylcellulose) (HPC)
[13] = dose: 400.0 mg/kg/injection, schedule: Q04DX002 (ip), vehicle: Klucel (hydroxypropylcellulose) (HPC)
[14] = dose: 100.0 mg/kg/injection, schedule: Q04DX003 (ip), vehicle: saline with Tween-80
[15] = dose: 200.0 mg/kg/injection, schedule: Q04DX003 (ip), vehicle: saline with Tween-80
[16] = dose: 400.0 mg/kg/injection, schedule: Q04DX003 (ip), vehicle: saline with Tween-80

Measured: T/C

O=C(CCl)N(c1ccccc1)c1ccccc1
inactive: dose: 25.0 mg/kg/injection, schedule: Q04DX002 (ip), vehicle: Klucel (hydroxypropylcellulose) (HPC) 101 % of control and 107 % of control | dose: 50.0 mg/kg/injection, schedule: Q04DX002 (ip), vehicle: Klucel (hydroxypropylcellulose) (HPC) 103 % of control | [1] 95 % of control and 92 % of control

O=C(Nc1ccc(F)cc1)c1ccccc1Cl
inactive: dose: 100.0 mg/kg/injection, schedule: Q01DX009 (ip), vehicle: acetone 98 % of control | dose: 200.0 mg/kg/injection, schedule: Q01DX009 (ip), vehicle: acetone 102 % of control | dose: 400.0 mg/kg/injection, schedule: Q01DX009 (ip), vehicle: acetone 102 % of control

CC(=O)CCC[CH2][Sn]([c]1ccccc1)([c]1ccccc1)[c]1ccccc1
inactive: [2] 102 % of control | [3] 91 % of control | [4] 97 % of control

CCCCc1ccccn1
inactive: dose: 100.0 mg/kg/injection, schedule: Q01DX001 (ip), vehicle: saline 96 % of control

O=S1(=O)CC(Cl)C(Cl)C1 (centres undefined)
inactive: dose: 1.56 mg/kg/injection, schedule: Q01DX009 (ip), vehicle: saline 90 % of control | dose: 3.12 mg/kg/injection, schedule: Q01DX009 (ip), vehicle: saline 91 % of control | dose: 6.25 mg/kg/injection, schedule: Q01DX009 (ip), vehicle: saline 91 % of control | dose: 12.5 mg/kg/injection, schedule: Q01DX001 (ip), vehicle: other 94 % of control | dose: 12.5 mg/kg/injection, schedule: Q01DX001 (ip), vehicle: saline with Tween-80 98 % of control | dose: 12.5 mg/kg/injection, schedule: Q01DX009 (ip), vehicle: other 90 % of control | [5] 98 % of control | [6] 106 % of control | dose: 25.0 mg/kg/injection, schedule: Q01DX001 (ip), vehicle: other 95 % of control | dose: 25.0 mg/kg/injection, schedule: Q01DX001 (ip), vehicle: saline with Tween-80 100 % of control | [7] 108 % of control | dose: 25.0 mg/kg/injection, schedule: Q04DX003 (ip), vehicle: saline with Tween-80 101 % of control | [8] 95 % of control | dose: 50.0 mg/kg/injection, schedule: Q04DX003 (ip), vehicle: Klucel (hydroxypropylcellulose) (HPC) 92 % of control | dose: 50.0 mg/kg/injection, schedule: Q04DX003 (ip), vehicle: saline with Tween-80 90 % of control

COC1OC2COc3ccccc3OC2C(NC#N)C1O (centres undefined)
inactive: [9] 97 % of control | [10] 96 % of control | [11] 89 % of control

c1ccc(-c2cc3c(nn2)[nH]c2ccccc23)cc1
inactive: [1] 105 % of control | [12] 97 % of control | [13] 87 % of control

CC(C)CNC(=O)Nc1ccccc1C(F)(F)F
inactive: [14] 95 % of control | [15] 97 % of control | [16] 97 % of control

O=C(C[n+]1ccc2ccccc2c1)c1ccccc1
inactive: [5] 98 % of control | dose: 25.0 mg/kg/injection, schedule: Q01DX009 (ip), vehicle: saline 104 % of control | dose: 50.0 mg/kg/injection, schedule: Q01DX009 (ip), vehicle: saline 101 % of control | dose: 50.0 mg/kg/injection, schedule: Q04DX003 (ip), vehicle: saline 97 % of control

NC(=O)c1cn[nH]c1N
inactive: dose: 100.0 mg/kg/injection, schedule: Q01DX001 (ip), vehicle: Klucel (hydroxypropylcellulose) (HPC) 96 % of control | dose: 100.0 mg/kg/injection, schedule: Q01DX009 (ip), vehicle: Klucel (hydroxypropylcellulose) (HPC) 95 % of control and 87 % of control and 93 % of control | [1] 100 % of control and 102 % of control | dose: 100.0 mg/kg/injection, schedule: Q04DX003 (ip), vehicle: Klucel (hydroxypropylcellulose) (HPC) 106 % of control and 93 % of control | dose: 200.0 mg/kg/injection, schedule: Q01DX001 (ip), vehicle: Klucel (hydroxypropylcellulose) (HPC) 104 % of control | dose: 200.0 mg/kg/injection, schedule: Q01DX009 (ip), vehicle: Klucel (hydroxypropylcellulose) (HPC) 93 % of control and 95 % of control | [12] 96 % of control and 120 % of control | dose: 200.0 mg/kg/injection, schedule: Q04DX003 (ip), vehicle: Klucel (hydroxypropylcellulose) (HPC) 100 % of control and 91 % of control | dose: 400.0 mg/kg/injection, schedule: Q01DX001 (ip), vehicle: Klucel (hydroxypropylcellulose) (HPC) 96 % of control | dose: 400.0 mg/kg/injection, schedule: Q01DX009 (ip), vehicle: Klucel (hydroxypropylcellulose) (HPC) 97 % of control and 123 % of control and 93 % of control | [13] 100 % of control and 102 % of control | dose: 400.0 mg/kg/injection, schedule: Q04DX003 (ip), vehicle: Klucel (hydroxypropylcellulose) (HPC) 87 % of control and 93 % of control

O=C(O)c1cc(S(=O)(=O)F)c(Cl)cc1Cl
inactive: dose: 25.0 mg/kg/injection, schedule: Q01DX009 (ip), vehicle: saline with Tween-80 102 % of control | dose: 50.0 mg/kg/injection, schedule: Q01DX009 (ip), vehicle: saline with Tween-80 103 % of control | [9] 100 % of control and 101 % of control

c1ccc2sc(SN3CCOCC3)nc2c1
inactive: [9] 95 % of control | [14] 100 % of control | [10] 92 % of control | [15] 87 % of control | [11] 92 % of control | [16] 89 % of control

CCN1CC1
inactive: dose: 6.25 mg/kg/injection, schedule: Q01DX009 (ip), vehicle: Klucel (hydroxypropylcellulose) (HPC) 98 % of control | dose: 6.25 mg/kg/injection, schedule: Q04DX003 (ip), vehicle: Klucel (hydroxypropylcellulose) (HPC) 96 % of control | dose: 12.5 mg/kg/injection, schedule: Q01DX009 (ip), vehicle: Klucel (hydroxypropylcellulose) (HPC) 107 % of control | [6] 90 % of control | [7] 109 % of control

COc1c(Cl)c(Cl)c(Cl)c(Cl)c1Cl
inactive: dose: 100.0 mg/kg/injection, schedule: Q01DX009 (ip), vehicle: saline 89 % of control | dose: 100.0 mg/kg/injection, schedule: Q04DX003 (ip), vehicle: acetone 95 % of control | dose: 200.0 mg/kg/injection, schedule: Q01DX009 (ip), vehicle: saline 89 % of control | dose: 200.0 mg/kg/injection, schedule: Q04DX003 (ip), vehicle: acetone 94 % of control | dose: 400.0 mg/kg/injection, schedule: Q04DX003 (ip), vehicle: acetone 96 % of control

O=c1[nH]c2cc(Cl)cc(Cl)c2c2ccc(Cl)cc12
inactive: dose: 100.0 mg/kg/injection, schedule: Q01DX001 (ip), vehicle: carboxymethylcellulose (CMC) 100 % of control | dose: 200.0 mg/kg/injection, schedule: Q01DX001 (ip), vehicle: carboxymethylcellulose (CMC) 96 % of control | dose: 400.0 mg/kg/injection, schedule: Q01DX001 (ip), vehicle: carboxymethylcellulose (CMC) 89 % of control

CCC(C)C(C=NCC(CCN(CC)CC)(c1cccc2ccccc12)C(C)CC)(CCN(CC)CC)c1cccc2ccccc12 (centres undefined)
inactive: [2] 94 % of control | [3] 97 % of control | [4] 87 % of control

CCC(CN)(c1ccccc1)c1ccccc1
inactive: [8] 96 % of control | dose: 100.0 mg/kg/injection, schedule: Q01DX001 (ip), vehicle: other 104 % of control | dose: 200.0 mg/kg/injection, schedule: Q01DX001 (ip), vehicle: other 102 % of control | dose: 400.0 mg/kg/injection, schedule: Q01DX001 (ip), vehicle: other 96 % of control

Source: PubChem BioAssay AID248 (DTP/NCI, 2004)
